# Reference: PMC12209991 (Clinical Pharmacology in Drug Development, 2025)
# Entries after “also recorded” stand apart in the source; their conditions may differ. Like-named read-outs stand apart in the source and are kept apart here.
# Tests used:
# [1] = Multiple ascending dose (MAD) pharmacokinetics in healthy volunteers, BID for 14 days; type: in vivo, human; conditions: human, plasma, oral; for Tmax: read-out: Tmax, median [min-max]
# Description: (§1) Analytes were separated by HPLC on a Waters Atlantis T3 analytical column using a gradient mobile phase (mobile phase A: 10% acetonitrile, 90% water, 10 mM ammonium acetate, 0.3% formic acid; mobile phase B: 90% acetonitrile, 10% water, 10 mM ammonium acetate, 0.3% formic acid) run at 0.4 mL/min with initial mobile phase B concentration of 30%.
# [2] = Food effect (high-fat breakfast) on RBN-3143 pharmacokinetics, cross-over; type: in vivo, human; conditions: single 500 mg oral dose; for Tmax / AUC(0-inf) / AUC(0-t) / Cmax: human, plasma, po, 500 mg; for Tmax: read-out: Median Tmax
# Description: as §1
# [3] = Pantoprazole (PPI) effect on RBN-3143 pharmacokinetics, cross-over; type: in vivo, human; conditions: for AUC(0-inf) / AUC(0-t) / Cmax: human, plasma, po, single 500 mg oral dose
# Description: as §1
# CYP3A4 = CYP3A4 (Homo sapiens, UniProt P08684); assay: In vitro metabolism; type: in vitro ADME; conditions: unpublished data
# CYP3A4, sequence (P08684 whole entry): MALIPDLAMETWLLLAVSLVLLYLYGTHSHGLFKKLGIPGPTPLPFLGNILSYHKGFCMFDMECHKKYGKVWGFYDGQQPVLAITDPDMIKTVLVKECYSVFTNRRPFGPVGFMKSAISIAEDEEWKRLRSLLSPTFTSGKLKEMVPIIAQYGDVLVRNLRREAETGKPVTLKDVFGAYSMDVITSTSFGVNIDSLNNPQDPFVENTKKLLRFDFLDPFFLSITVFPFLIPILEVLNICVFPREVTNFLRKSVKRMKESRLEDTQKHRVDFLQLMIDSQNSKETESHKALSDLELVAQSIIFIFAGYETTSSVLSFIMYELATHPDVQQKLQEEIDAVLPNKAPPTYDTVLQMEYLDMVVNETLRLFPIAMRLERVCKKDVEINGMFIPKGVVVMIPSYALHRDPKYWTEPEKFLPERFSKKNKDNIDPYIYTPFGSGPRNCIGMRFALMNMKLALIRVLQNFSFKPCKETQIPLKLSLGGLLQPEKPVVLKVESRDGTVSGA
compound,measurement,setting,value
CC(=O)N1CCC(COc2cc(F)c3c(=O)[nH]c(CSC4CCOCC4)nc3c2)CC1 [RBN‐3143],AUC,"[1]; 300 mg, 300 mg BID, Day 14, plasma, read-out: AUC12, geometric mean (Geo CV%)",9550 ng·h/mL
same,AUC,"[1]; 300 mg, 300 mg BID, Day 14, plasma, read-out: AUC12, mean (SD)",9860 ng·h/mL
same,Cmax,"[1]; 300 mg, 300 mg BID, Day 14, plasma, read-out: Cmax, geometric mean (Geo CV%)",1420 ng/mL
same,Cmax,"[1]; 300 mg, 300 mg BID, Day 14, plasma, read-out: Cmax, mean (SD)",1470 ng/mL
same,Tmax,"[1]; 300 mg, 300 mg BID, Day 14, plasma",2 h
same,AUC,"[1]; 500 mg, 500 mg BID, Day 1, plasma, read-out: AUC12, geometric mean (Geo CV%)",8040 ng·h/mL
same,AUC,"[1]; 500 mg, 500 mg BID, Day 1, plasma, read-out: AUC12, mean (SD)",8340 ng·h/mL
same,Cmax,"[1]; 500 mg, 500 mg BID, Day 1, plasma, read-out: Cmax, geometric mean (Geo CV%)",1270 ng/mL
same,Cmax,"[1]; 500 mg, 500 mg BID, Day 1, plasma, read-out: Cmax, mean (SD)",1320 ng/mL
same,Tmax,"[1]; 500 mg, 500 mg BID, Day 1, plasma",2.52 h
same,half-life,"[1]; 500 mg, 500 mg BID, Day 1, plasma, read-out: t1/2, geometric mean (Geo CV%) (converted)",4.38 h
same,half-life,"[1]; 500 mg, 500 mg BID, Day 1, plasma, read-out: t1/2, mean (SD) (converted)",4.39 h
same,AUC,"[1]; 500 mg, 500 mg BID, Day 14, plasma, read-out: AUC12, geometric mean (Geo CV%)",12400 ng·h/mL
same,AUC,"[1]; 500 mg, 500 mg BID, Day 14, plasma, read-out: AUC12, mean (SD)",12600 ng·h/mL
same,Cmax,"[1]; 500 mg, 500 mg BID, Day 14, plasma, read-out: Cmax, geometric mean (Geo CV%)",1830 ng/mL
same,Cmax,"[1]; 500 mg, 500 mg BID, Day 14, plasma, read-out: Cmax, mean (SD)",1880 ng/mL
same,Tmax,"[1]; 500 mg, 500 mg BID, Day 14, plasma",1.5 h
same,Tmax,[2]; after a high-fat meal,4 h
same,Tmax,[2]; fasted state,2 h
same,AUC(0-inf),"[2]; fasted, N=13, linear mixed-effects model, read-out: AUCinf, GLSM",13300 ng·h/mL
same,AUC(0-t),"[2]; fasted, N=13, linear mixed-effects model, read-out: AUClast, GLSM",12900 ng·h/mL
same,Cmax,"[2]; fasted, N=13, linear mixed-effects model, read-out: Cmax, GLSM",1550 ng/mL
same,AUC(0-inf),"[2]; fasted, N=13, read-out: AUCinf, geometric mean (Geo CV%)",13300 ng·h/mL
same,AUC(0-inf),"[2]; fasted, N=13, read-out: AUCinf, mean (SD)",13800 ng·h/mL
same,AUC(0-t),"[2]; fasted, N=13, read-out: AUClast, geometric mean (Geo CV%)",12800 ng·h/mL
same,AUC(0-t),"[2]; fasted, N=13, read-out: AUClast, mean (SD)",13300 ng·h/mL
same,Cmax,"[2]; fasted, N=13, read-out: Cmax, geometric mean (Geo CV%)",1530 ng/mL
same,Cmax,"[2]; fasted, N=13, read-out: Cmax, mean (SD)",1600 ng/mL
same,AUC(0-inf),"[2]; fed (high-fat breakfast), N=13, linear mixed-effects model, read-out: AUCinf, GLSM",18900 ng·h/mL
same,AUC(0-t),"[2]; fed (high-fat breakfast), N=13, linear mixed-effects model, read-out: AUClast, GLSM",18700 ng·h/mL
same,Cmax,"[2]; fed (high-fat breakfast), N=13, linear mixed-effects model, read-out: Cmax, GLSM",2690 ng/mL
same,AUC(0-inf),"[2]; fed (high-fat breakfast), N=13, read-out: AUCinf, geometric mean (Geo CV%)",18800 ng·h/mL
same,AUC(0-inf),"[2]; fed (high-fat breakfast), N=13, read-out: AUCinf, mean (SD)",19600 ng·h/mL
same,AUC(0-t),"[2]; fed (high-fat breakfast), N=13, read-out: AUClast, geometric mean (Geo CV%)",18600 ng·h/mL
same,AUC(0-t),"[2]; fed (high-fat breakfast), N=13, read-out: AUClast, mean (SD)",19400 ng·h/mL
same,Cmax,"[2]; fed (high-fat breakfast), N=13, read-out: Cmax, geometric mean (Geo CV%)",2660 ng/mL
same,Cmax,"[2]; fed (high-fat breakfast), N=13, read-out: Cmax, mean (SD)",2780 ng/mL
same,delay of oral absorption with food,[2],about 2 hours
same,AUC(0-inf),"[3]; 500 mg, fasted without pantoprazole, N=12, linear mixed-effects model, read-out: AUCinf, GLSM",13300 ng·h/mL
same,AUC(0-t),"[3]; 500 mg, fasted without pantoprazole, N=12, linear mixed-effects model, read-out: AUClast, GLSM",12800 ng·h/mL
same,Cmax,"[3]; 500 mg, fasted without pantoprazole, N=12, linear mixed-effects model, read-out: Cmax, GLSM",1530 ng/mL
same,AUC(0-inf),"[3]; 500 mg, fasted without pantoprazole, read-out: AUCinf, geometric mean (Geo CV%)",13300 ng·h/mL
same,AUC(0-inf),"[3]; 500 mg, fasted without pantoprazole, read-out: AUCinf, mean (SD)",13800 ng·h/mL
same,AUC(0-t),"[3]; 500 mg, fasted without pantoprazole, read-out: AUClast, geometric mean (Geo CV%)",12800 ng·h/mL
same,AUC(0-t),"[3]; 500 mg, fasted without pantoprazole, read-out: AUClast, mean (SD)",13300 ng·h/mL
same,Cmax,"[3]; 500 mg, fasted without pantoprazole, read-out: Cmax, geometric mean (Geo CV%)",1530 ng/mL
same,Cmax,"[3]; 500 mg, fasted without pantoprazole, read-out: Cmax, mean (SD)",1600 ng/mL
same,AUC(0-inf),"[3]; fasted with pantoprazole 40 mg QD, N=12, linear mixed-effects model, read-out: AUCinf, GLSM",13800 ng·h/mL
same,AUC(0-t),"[3]; fasted with pantoprazole 40 mg QD, N=12, linear mixed-effects model, read-out: AUClast, GLSM",13400 ng·h/mL
same,Cmax,"[3]; fasted with pantoprazole 40 mg QD, N=12, linear mixed-effects model, read-out: Cmax, GLSM",1560 ng/mL
same,AUC(0-inf),"[3]; fasted with pantoprazole 40 mg QD, read-out: AUCinf, geometric mean (Geo CV%)",13300 ng·h/mL
same,AUC(0-inf),"[3]; fasted with pantoprazole 40 mg QD, read-out: AUCinf, mean (SD)",13700 ng·h/mL
same,AUC(0-t),"[3]; fasted with pantoprazole 40 mg QD, read-out: AUClast, geometric mean (Geo CV%)",13000 ng·h/mL
same,AUC(0-t),"[3]; fasted with pantoprazole 40 mg QD, read-out: AUClast, mean (SD)",13400 ng·h/mL
same,Cmax,"[3]; fasted with pantoprazole 40 mg QD, read-out: Cmax, geometric mean (Geo CV%)",1540 ng/mL
same,Cmax,"[3]; fasted with pantoprazole 40 mg QD, read-out: Cmax, mean (SD)",1580 ng/mL
same,effect of pantoprazole on RBN-3143 exposure/PK,"[3]; pantoprazole 40 mg QD pre-treatment, RBN-3143 500 mg",did not impact; also recorded: no effect; also recorded: did not alter; also recorded: unaffected
same,metabolizing enzyme,CYP3A4,predominantly metabolized by cytochrome P4503A4 (CYP3A4)
